Measured values reported in US7250397B2, “Antiarrhythmic peptides” (Zealand Pharma A/S, priority 2000, dated 2007).
[ ]: non-standard residue; d: D form. The star is where a group is joined. Hyp = O=C(O)[C@@H]1C[C@@H](O)CN1; dHyp = O=C(O)[C@H]1C[C@H](O)CN1; T4C = not defined here; Acm = CC(=O)NC*; Sar = CNCC(=O)O

Key:
[1] = test system: calcium-induced arrythmias; assay: Calcium-induced arrhythmia model in mice; format: in vivo; conditions: maximal effect; i.v.; time until 2nd degree AV-block during CaCl2 infusion relative to vehicle treated mice
Procedure: The antiarrhythmic effects of compounds of this invention were tested in an in vivo model of calcium-induced arrythmias according to the model of Lynch et al.^[37]. […]. Commercial solutions of hypnorm and midazolam were diluted 1:1 in distilled water and one part diluted Hypnorm® is mixed with one part diluted midazolam.
The anaesthesia was induced by s.c. administration in a dose of 0.05-0.075 μl/10 gram mouse. An i.v cannula was inserted into the tail vein. The lead II ECG signal was recorded continuously by positioning of a stainless steel ECG electrodes on the right forelimb and on the left hind limb. The ground electrode was placed on the right hind limb. The signal was amplified (x 5.000-10.000) and filtered (0.1-150 Hz) via a Hugo Sachs Electronic model 689 ECG module. The analogue signal was digitised via a 12 bit data acquisition board (Data Translation model DT321) and sampled at 1000 Hz using the Notocord HEM 3.1 software for Windows NT. After a 10-min equilibration period, the test sample of drug was injected into the tail vein. Mice pre-treated with vehicle were tested as a measure of the control level in untreated animals. The injection volume was 100 μl in all experiments. Infusion of CaCl2 (30 mg/ml, 0.1 ml/min≈100 mg/kg/min (calciumchlorid-2-hydrat, Riedel-de Häen, Germany)) was started 3 min after i.v. administration of drug or vehicle. The time lag to onset of 2nd degree AV-block was determined as the time from the start of CaCl2 infusion until the first arrhythmic event occured. An event of 2nd degree AV-block was defined as intermittent failure of the AV conduction characterised by a P-wave without the concomitant QRS complex.
Responses were expressed relative to the time until 2nd degree AV-block occurred in vehicle treated mice.

[2] = test system: phospho-inositol turnover in neonatal rat cardiomyocytes; assay: Phosphoinositol turnover in rat primary cardiomyocytes; format: cell-based; conditions: for EC50: Rattus norvegicus, Cardiomyocyte
Procedure: Neonatal Wistar rats (1-2 days old) are used. Hank's calcium- and magnesium-free balanced salt solution, buffered with 10 mM HEPES is used for washing during cell separation procedures. The hearts are excised, the ventricles isolated and the tissue cut into small pieces. The myocardial cells are isolated by stepwise enzymatic degradation with collagenase 0.05%, as described by^[35]. After repeated rounds of centrifugation and washing, the precipitated cells are resuspended in culture medium M199 with Earle's salt, 10% NCS, penicillin (75 U/mL), and streptomycin (75 U/mL) and pre-plated in a Petri dish for 90 minutes. The non-adherent cells are collected in the culture medium and plated in multidishes at 2.5*10^5 cells/well. The cultures are kept in a water-saturated CO2-incubator at 37° C. The cardiomyocyte cultures are used for analyses after 6-7 days.
Cardiomyocyte cultures are incubated for 48 hours in culture medium containing […] myo-[2-^3H]inositol to label the inositol phospholipids. On the day of analysis the medium is replaced by a buffer solution containing lithium and incubated at 37° C., as described by Meier et al.^[36]. After at least five minutes this buffer is replaced by the same volume of buffer containing test compound and incubated for exactly 20 minutes. The reaction is stopped by rapid replacement of the buffer by ice cold 4% v/v perchloric acid (PCA) and incubation for at least 20 minutes at 0° C. The PCA-extract is neutralised and the [^3H]inositol phosphates are separated by anion-exchange chromatography using Amprep™ columns containing 100 mg SAX Quaternary amine. The [^3H]inositol mono-phosphates are eluted and radioactivity in the fraction measured by liquid scintillation counting.
Before adding test substances to the cultures, the cells are depleted of glucose and oxygen by incubating them in a N2-atmosphere in glucose-free lithium-buffer for 10 minutes at 37° C. Control cells are incubated likewise only at normal atmospheric conditions and in a buffer containing glucose.

CHO cells = assay: In situ binding of [125I]AAP10 on intact CHO cells; conditions: overnight at 4° C.
Procedure: CHO cells are seeded in 24-multi well dishes in a density of 7,900 cells/cm^2 (˜15,000 cells/well) and grown for 3 Days In Vitro (DIV) in 1 ml/well of F-12K Nutrient Mixture supplemented with […] (FCS) and 1000 units penicillin/1000 μg streptomycin (pen/strep) in an atmosphere of 5% CO2 and 100% humidity at 37° C. The cell density has at that time increased to 295,000 cells/cm^2 (152 pgprot/cell˜85 μgprot/well).
On the day of analysis cells are removed from the incubator and each well is washed twice with, depending on the experiment, either 2 ml pre-warmed (37° C.) or ice-cold (0° C.) D-PBS to remove serum. It is important to keep the period to a minimum during which cells are left without physiological solutions to avoid that they dry out during washing procedures. The cold washed cells are used directly for binding assays while the warm washed cells are used for experiments with glucose and oxygen deprivation.
Cells are incubated for 10 min in an N2-atmosphere in glucose free D-PBS (pH 7.2) pre-equilibrated with N2 for at least 10 min at 37° C. Control cells are incubated likewise for 10 min at 37° C., only, at normal atmospheric conditions and in D-PBS containing glucose (6 mM). […]
0.25 ml of 0.5% Triton-X-100 (v/v) is added to each well and cells left for at least 1 h to solubilize. […] The vials are counted in a γ-counter.

[3] = test system: guinea pig papillary muscle; conditions: 1 μM; normoxic conditions; cited from earlier work
[4] = test system: membranes from rabbit heart; conditions: read-out: value given for AAP10 by Dhein et al.; cited from earlier work

## 3-(4-hydroxyphenyl)propionyl-Pro-Hyp-Gly-Ala-Gly-OH [Compound CE3, reference compound]
[1]
  In vivo activity: ++ (30-50% increase in time until arrhythmia)

## NC[C@H](O)c1ccc(O)c(O)c1 [Noradrenaline]
[2]; atmosphere of N2 and depleted of glucose
  EC50: 303 nM
[2]; normal atmospheric and nutritional conditions
  EC50: 203 nM

## ASAL(mono-iodo)-Pro-Hyp-Gly-Ala-Gly-NH2 [Compound 32]
CHO cells
  IC50: 0.5 nM
[1]
  In vivo activity: +++ (>60% increase in time until arrhythmia)

## Ac-D-Tyr(3,5-di-I)-D-Pro-D-Hyp-Gly-D-Ala-Gly-NH2 [Compound 24]
CHO cells
  IC50: 65 nM

## Ac-Gly-Asn-Tyr-NH2 [Compound 40]
[1]
  In vivo activity: ++ (30-50% increase in time until arrhythmia)

## Ac-Tyr-Pro-4Hyp-Gly-Ala-Gly-OH (Ac-YP[Hyp]GAG-OH; SMILES CC(=O)N[C@@H](Cc1ccc(O)cc1)C(=O)N1CCC[C@H]1C(=O)N1C[C@H](O)C[C@H]1C(=O)NCC(=O)N[C@@H](C)C(=O)NCC(=O)O) [Compound 1]
[1]
  In vivo activity: + (15-29% increase in time until arrhythmia)

## Cyclo(Tyr-Pro-4Hyp-Gly-Ala-Gly-Asn) [Compound 3]
[1]
  In vivo activity: +++ (>60% increase in time until arrhythmia)

## H-C(Acm)GAG[Hyp]PYC(Acm)-NH2 [Compound 16]
[1]
  In vivo activity: + (15-29% increase in time until arrhythmia)

## H-GAG[Hyp]PY-NH2 [Compound CE2]
[2]; during normoxia
  EC50 relative to the EC50 of Compound 2: 200 fold
[2]; metabolic stress induced by anoxia and glucose deprivation
  EC50 relative to the EC50 of Compound 2: 10 fold
[1]
  In vivo activity: +++ (>60% increase in time until arrhythmia)
[3]
  decrease of stimulus-response-interval: about 10%
[4]
  IC50: 0.2 nM

## H-GAG[dHyp]AY-NH2 [Compound 9]
[1]
  In vivo activity: + (15-29% increase in time until arrhythmia)

## H-GAG[dHyp]PY-NH2 [Compound 5]
[1]
  In vivo activity: ++ (30-50% increase in time until arrhythmia)

## H-GAG[dHyp][dP]Y-NH2 [Compound 10]
[1]
  In vivo activity: +++ (>60% increase in time until arrhythmia)

## H-GP[Hyp]GAG-OH [Compound CE1, reference compound]
[1]
  In vivo activity: ++ (30-50% increase in time until arrhythmia)

## H-Gly-Ala-Gly-Asn-Tyr-NH2 (H-GAGNY-NH2) [Compound 39]
[1]
  In vivo activity: +++ (>60% increase in time until arrhythmia)

## H-Gly-Ala-Gly-PC-Pro-Tyr-NH2 (GAGPY; PC residue; C-terminal amide; Description of Artificial Sequence: Synthetic antiarrythmic peptide; PC between positions 3 and 4) [Compound 14]
[1]
  In vivo activity: + (15-29% increase in time until arrhythmia)

## H-Gly-Ala-Gly-T4C-Pro-Tyr-NH2 (H-GAG[T4C]PY-NH2; reading uncertain; also: printed as H-Gly-Ala-Gly-T4C-Pro-Tyr-NH2) [Compound 12]
[1]
  In vivo activity: ++ (30-50% increase in time until arrhythmia)

## H-Gly-Ala-Sar-Hyp-Pro-Tyr-NH2 (H-GA[Sar][Hyp]PY-NH2; SMILES C[C@H](NC(=O)CN)C(=O)N(C)CC(=O)N1C[C@H](O)C[C@H]1C(=O)N1CCC[C@H]1C(=O)N[C@@H](Cc1ccc(O)cc1)C(N)=O) [Compound 30]
[1]
  In vivo activity: ++ (30-50% increase in time until arrhythmia)

## H-Gly-Asn-Tyr-NH2 [Compound 41]
[1]
  In vivo activity: ++ (30-50% increase in time until arrhythmia)

## H-Hyp-Pro-Tyr-Asn-Gly-Ala-Gly-NH2 (H-[Hyp]PYNGAG-NH2; SMILES C[C@H](NC(=O)CNC(=O)[C@H](CC(N)=O)NC(=O)[C@H](Cc1ccc(O)cc1)NC(=O)[C@@H]1CCCN1C(=O)[C@@H]1C[C@@H](O)CN1)C(=O)NCC(N)=O) [Compound 28]
[1]
  In vivo activity: (+) (≦15% increase in time until arrythmia)

## H-[Sar]A[Sar][Hyp]PY-NH2 [Compound 29]
[1]
  In vivo activity: + (15-29% increase in time until arrhythmia)

## cyclo(-Gly-Ala-Gly-Hyp-Pro-Tyr-Asn-) (cyclo(GAG[Hyp]PYN)) [Compound 36]
[1]
  In vivo activity: +++ (>60% increase in time until arrhythmia)

## cyclo(-Gly-Ala-Gly-Hyp-Pro-Tyr-Gln-) (cyclo(GAG[Hyp]PYQ); SMILES C[C@@H]1NC(=O)CNC(=O)[C@H](CCC(N)=O)NC(=O)[C@H](Cc2ccc(O)cc2)NC(=O)[C@@H]2CCCN2C(=O)[C@@H]2C[C@@H](O)CN2C(=O)CNC1=O) [Compound 35]
[1]
  In vivo activity: ++ (30-50% increase in time until arrhythmia)
